Source: patent US11977075B2, “Method of predicting personalized response to cancer treatment with immune checkpoint inhibitors, method of treating cancer, and kit therefor” (Rappaport Family Institute for Research in the Medical …, priority 2017, dated 2024)

Experiments:
[1] = test system: EMT6 murine breast carcinoma; assay: EMT6 primary breast tumor model, ICI combined with SB-3CT; assay type: in vivo, BALB/c mice; settings: combination with either anti-PD-1 or anti-PD-L1 vs anti-PD-1 or anti-PD-L1 monotherapy
Method: Control mice are injected with IgG antibody and vehicle (10% DMSO in normal saline). Mice receiving either anti-PD-1 or anti-PD-L1 monotherapies are also injected with vehicle (10% DMSO in normal saline). Mice receiving SB3-CT monotherapy are also injected with IgG control antibodies. Tumor growth and mouse survival are monitored. At endpoint (when tumors reach a size of ˜1500 mm^3), mice are sacrificed.

[2] = test system: cancer patients; settings: pooled data from clinical studies; cited from earlier work

Compound | increasing survival [1] | reducing tumor size [1] | duration of clinical response [2] | duration of clinical response, can last up to [2] | subset of patients in which the therapeutic effect is observed [2]
O=S(=O)(CC1CS1)c1ccc(Oc2ccccc2)cc1 (centres unmarked) [SB-3CT, 2-(((4-phenoxyphenyl)sulfonyl)methyl)thiirane] | more effective | more effective | – | – | –
ipilimumab | – | – | around 3 years | up to 10 years | ~20%
